Our source for the inhibition values is patent US20240425501A1, “NOVEL BICYCLIC HETEROARYL DERIVATIVES AS SOS1:KRAS PROTEINPROTEIN INTERACTION INHIBITORS” (SATYARX PHARMA INNOVATIONS PVT LTD, priority 2021, published 2024).

Molecules are shown by their SMILES.

The target of this assay is T1, hSOS1 enzyme / KRAS (G12C), GST-Tag, GDP-bound protein (Homo sapiens, UniProt Q07889).
T1 sequence (Q07889 564-1049 limits assumed): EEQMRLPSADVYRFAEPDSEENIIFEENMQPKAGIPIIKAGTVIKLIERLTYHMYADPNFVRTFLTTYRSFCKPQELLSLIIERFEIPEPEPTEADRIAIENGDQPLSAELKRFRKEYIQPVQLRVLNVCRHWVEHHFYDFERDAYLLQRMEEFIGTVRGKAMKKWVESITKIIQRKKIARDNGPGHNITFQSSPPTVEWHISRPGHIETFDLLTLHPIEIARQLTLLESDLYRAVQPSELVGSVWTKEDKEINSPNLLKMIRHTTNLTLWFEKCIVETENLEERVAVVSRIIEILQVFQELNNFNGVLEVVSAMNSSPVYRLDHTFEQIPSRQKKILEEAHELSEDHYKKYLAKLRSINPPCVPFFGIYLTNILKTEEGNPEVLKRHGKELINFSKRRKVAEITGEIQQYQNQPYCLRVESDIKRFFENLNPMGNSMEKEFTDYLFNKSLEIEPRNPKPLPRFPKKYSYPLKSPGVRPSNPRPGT
Kind of assay: SOS1-mediated KRAS guanine nucleotide exchange (GEF) assay, HTRF ("On Assay"). Type of assay: biochemical. Conditions: 1 μM compound. The protocol: Biochemical Assay: Measurement of SOS1-Mediated KRAS Guanine Nucleotide Exchange (GEF) Assay
This assay quantifies the HTRF-based SOS1 mediated guanine nucleotide exchange assay detecting GTP binding to KRAS (G12C), GST-Tag, GDP-bound protein. This is also referred as “On Assay”.The assay buffer composition is as follows: 10 mM HEPES pH-7, 150 mM NaCl, 5 mM MgCl2, 1 mM DTT, 0.05% BSA, 0.0025% IGEPAL CA-630 and MilliQ water. 0.5 μl of compounds diluted in assay buffer were dispensed into the respective wells of 384 black well test plate. 4.75 μl of KRAS working solution containing 100 nM KRAS (G12C), GST-Tag, GDP-bound protein GDP-loaded (Reaction biology) and 2 nM Anti GST-Tb cryptate (FRET donor, Cisbio) was added in assay buffer. The components were incubated for 10 min at 25° C.
4.75 μl of hSOS1 working solution containing 20 nM hSOS1 enzyme and 200 nM EDA-GTP-DY-647P (FRET acceptor, synthesized by Jena Bioscience (Germany), supplied as a 1 mM solution) was further added in assay buffer. 4.75 μl of inhibitor control having only 200 nM EDA-GTP-DY-647P1 component without hSOS1 working solution was added in the negative control well. The plate was short spun for few seconds and incubated for 10 min. HTRF was measured using Perkin Elmer-Nivo 5F multimode plate reader.
HTRF settings: EXCITATION FILTER—320/75 nm, EMISSION FILTER (1) —615/8 nm, EMISSION FILTER (2)—665/8 nm
On the technique in general: TR-FRET usually uses a lanthanide donor and a delayed reading to cut background.
As for `C[C@@H](Nc1nc(N2CCC2)nc2cnc(N3CCN(C)CC3)cc12)c1cc(N)cc(C(F)(F)F)c1` [Example 46, (R)—N-(1-(3-amino-5-(trifluoromethyl)phenyl)ethyl)-2-(azetidin-1-yl)-6-(4-methylpiperazin-1-yl)pyrido[3,4-d]pyrimidin-4-amine], the inhibition at 1 µM is at least 50%. To `CC1CCN(c2cc3c(N[C@H](C)c4cc(N)cc(C(F)(F)F)c4)nc(N4CCC4)nc3cn2)CC1` [Example 47, (R)—N-(1-(3-amino-5-(trifluoromethyl)phenyl)ethyl)-2-(azetidin-1-yl)-6-(4-methylpiperidin-1-yl)pyrido[3,4-d]pyrimidin-4-amine] belongs below 50%. The value for `CCN1CCN(c2cc3c(N[C@H](C)c4cc(N)cc(C(F)(F)F)c4)nc(N4CCC4)nc3cn2)CC1` [Example 48, (R)—N-(1-(3-amino-5-(trifluoromethyl)phenyl)ethyl)-2-(azetidin-1-yl)-6-(4-ethylpiperazin-1-yl)pyrido[3,4-d]pyrimidin-4-amine] was at least 50%; that for `CCN1CCN(c2cc3c(N[C@H](C)c4cc(N)cc(C(F)(F)F)c4)nc(N(C)C)nc3cn2)CC1` [Example 49, (R)—N4-(1-(3-amino-5-(trifluoromethyl)phenyl)ethyl)-6-(4-ethylpiperazin-1-yl)-N2,N2-dimethylpyrido[3,4-d]pyrimidine-2,4-diamine] was at least 50%; that for `CC(C)N1CCN(c2cc3c(N[C@H](C)c4cc(N)cc(C(F)(F)F)c4)nc(N(C)C)nc3cn2)CC1` [Example 50, (R)—N4-(1-(3-amino-5-(trifluoromethyl)phenyl)ethyl)-6-(4-isopropylpiperazin-1-yl)-N2,N2-dimethylpyrido[3,4-d]pyrimidine-2,4-diamine] was at least 50%. `C[C@@H](Nc1nc(N2CCC2)nc2cnc(N3CCC(F)(F)CC3)cc12)c1cc(N)cc(C(F)(F)F)c1` [Example 51, (R)—N-(1-(3-amino-5-(trifluoromethyl)phenyl)ethyl)-2-(azetidin-1-yl)-6-(4,4-difluoropiperidin-1-yl)pyrido[3,4-d]pyrimidin-4-amine] returned an inhibition at 1 µM of at least 50%. Regarding `C[C@@H](Nc1nc(N2CCC2)nc2cnc(N3CCN(C4CCC4)CC3)cc12)c1cc(N)cc(C(F)(F)F)c1` [Example 52, (R)—N-(1-(3-amino-5-(trifluoromethyl)phenyl)ethyl)-2-(azetidin-1-yl)-6-(4-cyclobutylpiperazin-1-yl)pyrido[3,4-d]pyrimidin-4-amine], the inhibition at 1 µM is at least 50%. Molecule `C[C@@H](Nc1nc(N2CCC2)nc2cnc(N(C)C)cc12)c1cc(N)cc(C(F)(F)F)c1` [Example 53, (R)—N4-(1-(3-amino-5-(trifluoromethyl)phenyl)ethyl)-2-(azetidin-1-yl)-N6,N6-dimethylpyrido[3,4-d]pyrimidine-4,6-diamine] gave an inhibition at 1 µM of at least 50%. The value for `CC(C)Nc1cc2c(N[C@H](C)c3cc(N)cc(C(F)(F)F)c3)nc(N3CCC3)nc2cn1` [Example 54, (R)—N4-(1-(3-amino-5-(trifluoromethyl)phenyl)ethyl)-2-(azetidin-1-yl)-N6-isopropylpyrido[3,4-d]pyrimidine-4,6-diamine] was at least 50%; that for `CC(C)Nc1cc2c(N[C@H](C)c3cc(N)cc(C(F)(F)F)c3)nc(N3CCCC3)nc2cn1` [Example 55, (R)—N4-(1-(3-amino-5-(trifluoromethyl)phenyl)ethyl)-N6-isopropyl-2-(pyrrolidin-1-yl)pyrido[3,4-d]pyrimidine-4,6-diamine] was at least 50%. To `CNc1cc2c(N[C@H](C)c3cc(N)cc(C(F)(F)F)c3)nc(N3CCC3)nc2cn1` [Example 56, (R)—N4-(1-(3-amino-5-(trifluoromethyl)phenyl)ethyl)-2-(azetidin-1-yl)-N6-methylpyrido[3,4-d]pyrimidine-4,6-diamine] belongs at least 50%.

As for `COc1nc(N[C@H](C)c2cc(N)cc(C(F)(F)F)c2)c2cc(N3CCOCC3)ncc2n1` [Example 57, (R)—N-(1-(3-amino-5-(trifluoromethyl)phenyl)ethyl)-2-methoxy-6-morpholinopyrido[3,4-d]pyrimidin-4-amine], the inhibition at 1 µM is at least 50%. To `COc1nc(N[C@H](C)c2cc(N)cc(C(F)(F)F)c2)c2cc(N3CCC(OC)CC3)ncc2n1` [Example 58, (R)—N-(1-(3-amino-5-(trifluoromethyl)phenyl)ethyl)-2-methoxy-6-(4-methoxypiperidin-1-yl)pyrido[3,4-d]pyrimidin-4-amine] belongs at least 50%; to `C[C@@H](Nc1nc(Cl)nc2cnc(N3CCOCC3)cc12)c1cccc(C(F)F)c1F` [Example 59, (R)-2-chloro-N-(1-(3-(difluoromethyl)-2-fluorophenyl)ethyl)-6-morpholinopyrido[3,4-d]pyrimidin-4-amine], at least 50%. The value for `COC1CCN(c2cc3c(N[C@H](C)c4cccc(C(F)F)c4F)nc(Cl)nc3cn2)CC1` [Example 60, (R)-2-chloro-N-(1-(3-(difluoromethyl)-2-fluorophenyl)ethyl)-6-(4-methoxypiperidin-1-yl)pyrido[3,4-d]pyrimidin-4-amine] was at least 50%; that for `C[C@@H](Nc1nc(Cl)nc2cnc(N3CCN(C)CC3)cc12)c1cccc(C(F)F)c1F` [Example 61, (R)-2-chloro-N-(1-(3-(difluoromethyl)-2-fluorophenyl)ethyl)-6-(4-methylpiperazin-1-yl)pyrido[3,4-d]pyrimidin-4-amine] was at least 50%.

For the molecule `CCN1CCN(c2cc3c(N[C@H](C)c4cccc(C(F)F)c4F)nc(Cl)nc3cn2)CC1` [Example 62, (R)-2-chloro-N-(1-(3-(difluoromethyl)-2-fluorophenyl)ethyl)-6-(4-ethylpiperazin-1-yl)pyrido[3,4-d]pyrimidin-4-amine], the inhibition at 1 µM is at least 50%. In turn, `C[C@@H](Nc1nc(Cl)nc2cnc(C3CCOCC3)cc12)c1cc(N)cc(C(F)(F)F)c1` [Example 63, (R)—N-(1-(3-amino-5-(trifluoromethyl)phenyl)ethyl)-2-chloro-6-(tetrahydro-2H-pyran-4-yl)pyrido[3,4-d]pyrimidin-4-amine] gave an inhibition at 1 µM of at least 50%. In turn, `C[C@@H](Nc1nc(Cl)nc2cnc(C3CCOCC3)cc12)c1cccc(C(F)F)c1F` [Example 64, (R)-2-chloro-N-(1-(3-(difluoromethyl)-2-fluorophenyl)ethyl)-6-(tetrahydro-2H-pyran-4-yl)pyrido[3,4-d]pyrimidin-4-amine] returned an inhibition at 1 µM of at least 50%. The value for `C[C@@H](Nc1nc(N(C)C)nc2cnc(C3CCOCC3)cc12)c1cc(N)cc(C(F)(F)F)c1` [Example 65, (R)—N4-(1-(3-amino-5-(trifluoromethyl)phenyl)ethyl)-N2,N2-dimethyl-6-(tetrahydro-2H-pyran-4-yl)pyrido[3,4-d]pyrimidine-2,4-diamine] was at least 50%; that for `CNc1nc(N[C@H](C)c2cc(N)cc(C(F)(F)F)c2)c2cc(C3CCOCC3)ncc2n1` [Example 66, (R)—N4-(1-(3-amino-5-(trifluoromethyl)phenyl)ethyl)-N2-methyl-6-(tetrahydro-2H-pyran-4-yl)pyrido[3,4-d]pyrimidine-2,4-diamine] was at least 50%.

The inhibition is the drop in the measured response relative to a control, in per cent. Higher therefore signals a response far below the control.
